Data taken from patent publication US20250388589A1, “TRICYCLIC HETEROCYCLIC DERIVATIVES, COMPOSITIONS AND USES THEREOF” (Danatlas Pharmaceuticals Co., Ltd., priority 2022, published 2025).

Experiments:
[1] = biological target: hPARG (C-terminal His6-tag) (Homo sapiens (Human), UniProt Q86W56); test: PARG Enzymatic Activity Assay (HTRF); type: biochemical; conditions: hPARG 65 pM final, biotinylated-NAD ribosylated PARP1 8 nM final
How it was run: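 Readout is time-resolved fluorescence at 620 and 665 nm after 60 min RT detection with streptavidin-Eu cryptate and anti-6HIS-XL665; IC50 by 4-parameter fit, 1% DMSO and no-enzyme controls. Reaction: 8 nM final ribosylated PARP1 substrate for 10 min RT, following 60 min RT enzyme (65 pM)–compound preincubation in Tris pH 7.4 buffer with EDTA, DTT, KCl.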

Kuramochi cell line = test: Cell Viability Assay (Cell Titer-Glo, 7 days); type: cell-based; conditions: 168 h, Kuramochi cells, 7 days incubation, read-out: PARG Cell viability (IC50)
How it was run: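 IC50 from a four-parameter fit of CellTiter-Glo luminescence, scaled between DMSO-treated (high) and medium-only (low) wells. Kuramochi cells (400/well, RPMI/10% FBS) exposed 7 days at 37 °C to 9 concentrations, 3-fold steps, in duplicate.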

Sequence of hPARG (C-terminal His6-tag) (Q86W56 whole entry): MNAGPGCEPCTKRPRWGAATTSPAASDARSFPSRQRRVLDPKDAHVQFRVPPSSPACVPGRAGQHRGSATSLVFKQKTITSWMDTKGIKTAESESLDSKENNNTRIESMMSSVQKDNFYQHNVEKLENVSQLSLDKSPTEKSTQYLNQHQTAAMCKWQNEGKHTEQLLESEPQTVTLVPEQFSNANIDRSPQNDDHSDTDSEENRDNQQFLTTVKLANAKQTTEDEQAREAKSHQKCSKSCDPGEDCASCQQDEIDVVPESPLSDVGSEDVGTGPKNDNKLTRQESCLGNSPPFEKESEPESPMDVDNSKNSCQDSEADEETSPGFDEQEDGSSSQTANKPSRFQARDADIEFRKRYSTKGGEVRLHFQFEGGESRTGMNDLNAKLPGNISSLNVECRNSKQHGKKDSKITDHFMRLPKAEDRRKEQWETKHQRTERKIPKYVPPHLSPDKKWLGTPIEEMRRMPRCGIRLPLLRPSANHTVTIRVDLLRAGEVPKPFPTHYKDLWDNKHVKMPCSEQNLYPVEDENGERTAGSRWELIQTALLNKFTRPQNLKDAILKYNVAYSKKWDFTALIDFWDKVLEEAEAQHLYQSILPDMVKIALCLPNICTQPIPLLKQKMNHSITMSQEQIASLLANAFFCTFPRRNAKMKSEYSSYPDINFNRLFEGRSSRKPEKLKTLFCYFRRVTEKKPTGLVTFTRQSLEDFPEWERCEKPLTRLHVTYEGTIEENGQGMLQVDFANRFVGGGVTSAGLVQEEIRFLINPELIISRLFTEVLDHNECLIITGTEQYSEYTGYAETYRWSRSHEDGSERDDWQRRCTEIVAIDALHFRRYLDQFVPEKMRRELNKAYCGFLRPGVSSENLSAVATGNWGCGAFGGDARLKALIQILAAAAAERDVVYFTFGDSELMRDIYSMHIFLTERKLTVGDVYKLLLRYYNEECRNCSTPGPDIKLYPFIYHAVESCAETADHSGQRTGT

Structure (SMILES)	IC50 [1] [nM]	IC50 (Kuramochi cell line) [nM]
N#CC1(NS(=O)(=O)c2ccc3c4c(N5CCN(c6ccccn6)CC5)ncnc4n(-c4nnc(C(F)F)s4)c3c2)CC1 [Example 17, N-(1-Cyanocyclopropyl)-9-(5-(difluoromethyl)-1,3,4-thiadiazol-2-yl)-4-(4-(pyridin-2-yl)piperazin-1-yl)-9H-pyrimido[4,5-b]indole-7-sulfonamide]	100 to 1000	100 to 1000
N#CC1(NS(=O)(=O)c2ccc3c4c(C5CCN(C(=O)[C@@H]6CCCN6)CC5)ncnc4n(-c4nnc(C(F)F)s4)c3c2)CC1 [Example 124, (S)—N-(1-Cyanocyclopropyl)-9-(5-(difluoromethyl)-1,3,4-thiadiazol-2-yl)-4-(1-prolylpiperidin-4-yl)-9H-pyrimido[4,5-b]indole-7-sulfonamide]	< 100	100 to 1000
C[C@H]1CN(C(=O)N(C)C)CCN1c1ncnc2c1c1ccc(S(=O)(=O)NC3(C#N)CC3)cc1n2-c1nnc(C(F)F)s1 [Example 72, (S)-4-(7-(N-(1-Cyanocyclopropyl)sulfamoyl)-9-(5-(difluoromethyl)-1,3,4-thiadiazol-2-yl)-9H-pyrimido[4,5-b]indol-4-yl)-N,N,3-trimethylpiperazine-1-carboxamide]	100 to 1000	100 to 1000
CN(C)[C@H]1CCN(C(=O)N2CCC(c3ncnc4c3c3ccc(S(=O)(=O)NC5(C#N)CC5)cc3n4-c3nnc(C(F)F)s3)CC2)C1 [Example 136, (S)-N-(1-Cyanocyclo-propyl)-9-(5-(difluoromethyl)-1,3,4-thiadiazol-2-yl)-4-(1-(3-(dimethylamino)pyrrolidine-1-carbonyl)piperidin-4-yl)-9H-pyrimido [4,5-b]indole-7-sulfonamide]	< 100	< 100
N#CC1(NS(=O)(=O)c2ccc3c4c(N5CCN(C(=O)c6ccc(F)cc6)CC5)ncnc4n(-c4nnc(C(F)F)s4)c3c2)CC1 [Example 13, N-(1-Cyanocyclopropyl)-9-(5-(difluoromethyl)-1,3,4-thiadiazol-2-yl)-4-(4-(4-fluorobenzoyl)piperazin-1-yl)-9H-pyrimido[4,5-b]indole-7-sulfonamide]	100 to 1000	100 to 1000
CC(C)(N)C(=O)N1CCC(c2ncnc3c2c2ccc(S(=O)(=O)NC4(C#N)CC4)cc2n3-c2nnc(C(F)F)s2)CC1 [Example 126, 4-(1-(2-Amino-2-methylpropanoyl)piperidin-4-yl)-N-(1-cyanocyclopropyl)-9-(5-(difluoromethyl)-1,3,4-thiadiazol-2-yl)-9H-pyrimido[4,5-b]indole-7-sulfonamide]	< 100	100 to 1000
CC(C)C(=O)N1C=CC(c2ncnc3c2c2ccc(S(=O)(=O)NC4(C#N)CC4)cc2n3-c2nnc(C(F)F)s2)CC1 (stereo not shown) [Example 75, N-(1-Cyanocyclopropyl)-9-(5-(difluoromethyl)-1,3,4-thiadiazol-2-yl)-4-(1-isobutyryl-1,2,3,4-tetrahydropyridin-4-yl)-9H-pyrimido[4,5-b]indole-7-sulfonamide]	< 100	< 100
C[C@@H]1CN(C(=O)N(C)C)[C@@H](C)CN1c1ncnc2c1c1ccc(S(=O)(=O)NC3(C)CC3)cc1n2-c1nnc(C(F)F)s1 [Example 100, (2S,5R)-4-(9-(5-(difluoromethyl)-1,3,4-thiadiazol-2-yl)-7-(N-(1-methylcyclopropyl)sulfamoyl)-9H-pyrimido[4,5-b]indol-4-yl)-N,N,2,5-tetramethylpiperazine-1-carboxamide]	< 100	< 100
CC(C)C(=O)N1C[C@H](C)N(c2ncnc3c2c2ccc(S(=O)(=O)NC4(C#N)CC4)cc2n3-c2nnc(C(F)F)s2)C[C@H]1C [Example 38, N-(1-Cyanocyclopropyl)-9-(5-(difluoromethyl)-1,3,4-thiadiazol-2-yl)-4-((2S,5R)-4-isobutyryl-2,5-dimethylpiperazin-1-yl)-9H-pyrimido[4,5-b]indole-7-sulfonamide]	< 100	100 to 1000
CC(C)S(=O)(=O)N1CCC(c2ncnc3c2c2ccc(S(=O)(=O)NC4(C#N)CC4)cc2n3-c2nnc(C(F)F)s2)CC1 [Example 123, N-(1-Cyanocyclopropyl)-9-(5-(difluoromethyl)-1,3,4-thiadiazol-2-yl)-4-(1-(isopropylsulfonyl)piperidin-4-yl)-9H-pyrimido[4,5-b]indole-7-sulfonamide]	< 100	< 100
N#CC1(NS(=O)(=O)c2ccc3c4c(N5CCN(C(=O)C6COC6)CC5)ncnc4n(-c4nnc(C(F)F)s4)c3c2)CC1 [Example 66, N-(1-Cyanocyclopropyl)-9-(5-(difluoromethyl)-1,3,4-thiadiazol-2-yl)-4-(4-(oxetane-3-carbonyl)piperazin-1-yl)-9H-pyrimido[4,5-b]indole-7-sulfonamide]	< 100	< 100
N#CC1(NS(=O)(=O)c2ccc3c4c(C5CCN(C(=O)[C@H]6CCCO6)CC5)ncnc4n(-c4nnc(C(F)F)s4)c3c2)CC1 [Example 110, (R)-N-(1-cyanocyclopropyl)-9-(5-(difluoromethyl)-1,3,4-thiadiazol-2-yl)-4-(1-(tetrahydrofuran-2-carbonyl)piperidin-4-yl)-9H-pyrimido[4,5-b]indole-7-sulfonamide]	< 100	< 100

More lines, main results first:

IC50 [1] [nM]	Structure (SMILES)	IC50 (Kuramochi cell line) [nM]
< 100	N#CC1(NS(=O)(=O)c2ccc3c4c(N5CCc6cc(CO)cnc6C5)ncnc4n(-c4nnc(C(F)F)s4)c3c2)CC1 [Example 181, N-(1-Cyanocyclopropyl)-9-(5-(difluoromethyl)-1,3,4-thiadiazol-2-yl)-4-(3-(hydroxymethyl)-5,8-dihydro-1,7-napthyridin-7(6H)-yl)-9H-pyrimido[4,5-b]indole-7-sulfonamide]	100 to 1000
< 100	CN(C)C(=O)N1CCC(c2ccnc3c2c2ccc(S(=O)(=O)NC4(C)CC4)cc2n3-c2nnc(C(F)F)s2)CC1 [Example 195, 4-(9-(5-(Difluoromethyl)-1,3,4-thiadiazol-2-yl)-7-(N-(1-methylcyclopropyl)sulfamoyl)-9H-pyrido[2,3-b]indol-4-yl)-N,N-dimethylpiperidine-1-carboxamide]	100 to 1000
< 100	N#CC1(NS(=O)(=O)c2ccc3c4c(N5CCN6C(=O)OC[C@H]6C5)ncnc4n(-c4nnc(C(F)F)s4)c3c2)CC1 [Example 167, (R)-N-(1-cyanocyclopropyl)-9-(5-(difluoromethyl)-1,3,4-thiadiazol-2-yl)-4-(3-oxotetrahydro-3H-oxazolo[3,4-a]pyrazin-7(1H)-yl)-9H-pyrimido[4,5-b]indole-7-sulfonamide]	< 100
< 100	N#CC1(NS(=O)(=O)c2ccc3c4c(N5CC[C@@H](O)[C@@H](F)C5)ncnc4n(-c4nnc(C(F)F)s4)c3c2)CC1 [Example 174, N-(1-cyanocyclopropyl)-9-(5-(difluoromethyl)-1,3,4-thiadiazol-2-yl)-4-((3S,4R)-3-fluoro-4-hydroxypiperidin-1-yl)-9H-pyrimido[4,5-b]indole-7-sulfonamide]	< 100
< 100	COCCN1CCN(c2ncnc3c2c2ccc(S(=O)(=O)NC4(C#N)CC4)cc2n3-c2nnc(C(F)F)s2)C[C@@H]1C [Example 178, (S)-N-(1-cyanocyclopropyl)-9-(5-(difluoromethyl)-1,3,4-thiadiazol-2-yl)-4-(4-(2-methoxyethyl)-3-methylpiperazin-1-yl)-9H-pyrimido[4,5-b]indole-7-sulfonamide]	< 100
100 to 1000	CC(C)c1nnc(-n2c3cc(S(=O)(=O)NC4(C#N)CC4)ccc3c3c(N4CCN(C(=O)C5CC5)CC4)ncnc32)s1 [Example 186, N-(1-Cyanocyclopropyl)-4-(4-(cyclopropanecarbonyl)piperazin-1-yl)-9-(5-isopropyl-1,3,4-thiadiazol-2-yl)-9H-pyrimido[4,5-b]indole-7-sulfonamide]	100 to 1000
< 100	N#CC1(NS(=O)(=O)c2ccc3c4c(N5CCS(=O)(=O)CC5)ncnc4n(-c4nnc(C(F)F)s4)c3c2)CC1 [Example 166, N-(1-cyanocyclopropyl)-9-(5-(difluoromethyl)-1,3,4-thiadiazol-2-yl)-4-(1,1-dioxidothiomorpholino)-9H-pyrimido[4,5-b]indole-7-sulfonamide]	100 to 1000
< 100	C[C@H]1CN(c2ncnc3c2c2ccc(S(=O)(=O)NC4(C#N)CC4)cc2n3-c2nnc(C(F)F)s2)CCN1CC(F)(F)F [Example 159, (S)-N-(1-cyanocyclopropyl)-9-(5-(difluoromethyl)-1,3,4-thiadiazol-2-yl)-4-(3-methyl-4-(2,2,2-trifluoroethyl)piperazin-1-yl)-9H-pyrimido[4,5-b]indole-7-sulfonamide]	100 to 1000
